{"source": "patent US6667163B2", "about": "“Polynucleotide sequences encoding mouse sphingosine-1-phosphate phosphatase” (Merck & Co., Inc., priority 2000, dated 2003)", "molecules": {"B1": {"name": "mSPP1: murine sphingosine-1-phosphate phosphatase, recombinant enzyme having the amino acid sequence of SEQ ID NO:3 (protein)", "chain": "MSLGQRLALLASRLQEPQRVASFQRLCGVEVPLSSPAADEDAETEVRGAPGEPRRRGRQPGAEDSPAKADCCGAPNGVRNGLAAEPGPTGPRRAGSQRRNSLTGEEGELVKVSNLPLYYLFCLGTELGNELFYILFFPFWIWNLDPFVGRRLVIIWVLVMYLGQCTKDIIRWPRPASPPVIKLEVFYNSEYSMPSTHAMSGTAIPIAMFLLTYGRWQYPLIYGLILIPCWSSLVCLSRIYMGMHSILDVIAGFLYTILILIIFYPLVDLIDNFNQTYKYAPLIIIGLHLILGIFSFTLDTWSTSRGDTAEILGSGAGIACGSHAAYTLGLSLEPSLHMLPLAIPPLTVTLFGKAILRIVLGMLLVLFVRDIMKKITIPLACKLSSIPCHDIRQARQHMEVELPYRYITYGMVGFSITFLVPYVFSFIGIS"}, "B2": {"name": "mSPP1b: murine mSPP1b protein of SEQ ID NO:4, divergent 5′ end, lacks the activity of mSPP1; counterscreen or negative control (protein)", "chain": "MGEELGHCVQMRKSNERGKRFREQRVQRAQGKVSHHTKEEEETRVRQMSQGWEEKEYGYYLFCLGTELGNELFYILFFPFWIWNLDPFVGRRLVIIWVLVMYLGQCTKDIIRWPRPASPPVIKLEVFYNSEYSMPSTHAMSGTAIPIAMFLLTYGRWQYPLIYGLILIPCWSSLVCLSRIYMGMHSILDVIAGFLYTILILIIFYPLVDLIDNFNQTYKYAPLIIIGLHLILGIFSFTLDTWSTSRGDTAEILGSGAGIACGSHAAYTLGLSLEPSLHMLPLAIPPLTVTLFGKAILRIVLGMLLVLFVRDIMKKITIPLACKLSSIPCHDIRQARQHMEVELPYRYITYGMVGFSITFLVPYVFSFIGIS"}}, "key": {"mSPP1": {"target": "T1, mSPP1 (Mus musculus, UniProt Q9JI99)", "T1 construct": "expressed in transfected cells; host or cells: HEK293 (human embryonic kidney), transient CaCl2 transfection with mSPP1-pcDNA3.1; membrane pellet (40,000 x g)", "T1 sequence (Q9JI99 1-430)": "B1 chain", "assay": "Substrate degradation by membrane fractions from HEK293 cells transfected with mSPP1", "format": "biochemical, murine"}, "[1]": {"test_system": "Yeast (lbp1Δ::LEU2 sur2-2)", "assay": "Australifungin sensitivity, microtiter broth dilution assay in transformed yeast", "format": "cell-based", "procedure": "Yeast cells defective in LBP1 shunt sphingolipid metabolites into phosphatidylethanolamine and phosphatidylcholine synthesis and become extremely sensitive to ceramide synthase inhibition by the antifungal agent, australifungin. To test whether the mouse SPP phosphatases can substitute for the function of LBP1, mSPP1pRS414-ADH, mSPP1bpRS414-ADH, or control vector (pRS414-ADH) were transformed into lbp1Δ::LEU2sur2-2 and sensitivity to australifungin was determined using a microtiter broth dilution assay. Transformants were incubated overnight in Synthetic Complete-Tryptophan (SC-TRP) Yeast Nitrogen Base medium (DIFCO) containing 2% glucose and 0.078% tryptophan-free supplement mixture (BIO101) at […]. Cells were inoculated at an OD600=0.001 (˜1×10^4 yeast cells/ml), and serial 2-fold dilutions of australifungin were made from 5 μg/ml. Growth after 48 h at 30° C. was measured by absorbance readings with a Rainbow spectrometer (TECAN)."}, "NIH 3T3 fibroblasts": {"test_system": "NIH 3T3 fibroblasts", "assay": "Enforced expression of mSPP1 in NIH 3T3 fibroblasts: survival and apoptosis", "format": "cell-based", "conditions": "enforced expression in NIH 3T3 fibroblasts"}, "[2]": {"test_system": "[3H]dihydrosphingosine-1-phosphate", "assay": "Dihydrosphingosine phosphate phosphohydrolase activity in membranes of transfected HEK293 cells", "format": "biochemical, Human", "conditions": "compared to vector transfected cells or mSPP1b transfected cells", "procedure": "Microsomal membranes were collected by ultracentrifugation (100,000×g, 1 hour) and suspended in disruption buffer containing 20% glycerol. Dihydrosphingosine-1-phosphate phosphohydrolase activity was measured in 200 μl containing 50 mM KPO4 pH 7.2, 0.02% tergitol (NP-40), 2 μM [^3H]dihydrosphingosine-1-phosphate (40,000 cpm), 2 mM semicarbazide, and 0.3 to 5 μg of membrane protein. Following a 45 min incubation at 37° C., the assay was terminated with 200 μl 7 M NH4OH. One ml of chloroform:methanol (3:2) was added and 50 μl of the chloroform layer was counted by liquid scintillation.\nTransfection-quality DNA was prepared for plasmids mSPP1-pcDNA3.1 and mSPP1b-pcDNA3.1 using endotoxin-free QIAGEN Maxi protocol (QIAGEN, Chatsworth, Calif.). Human embryonic kidney (HEK293) cells were maintained in high glucose Dulbecco's modified Eagle's medium (DMEM) containing 100 U/ml penicillin, 100 μg/ml streptomycin and 2 mM L-glutamine supplemented with 10% fetal bovine serum. Cells (1×10^6) were transfected with 20 μg of plasmid DNA by the CaCl2 procedure using a kit from SPECIALTY MEDIA (Lavallette, N.J.). Cells were harvested 48 hours after transfection with enzyme-free dissociation solution (SPECIALTY MEDIA, Lavallette, N.J.). […] Dihydrosphingosine phosphate phosphohydrolase activity was measured as described in Example 4."}, "[3]": {"test_system": "[3H]dihydrosphingosine-1-phosphate", "assay": "Dihydrosphingosine-1-phosphate phosphohydrolase activity in microsomal membranes of transformed yeast", "format": "biochemical", "conditions": "yeast lbp1Δ::LEU2 sur2-2 expressing the protein, compared to the vector control", "text": "To test whether mSPP1 and mSPP1b encoded SPP phosphatases with properties similar to yeast Lbp1p, the mouse genes were subcloned into pRS414-ADH for expression of the genes in LBP1 mutants under the control of a strong, constitutive yeast promoter (ADH). The resulting plasmids were mSPP1pRS414-ADH and mSPP1bpRS414-ADH. Yeast (lbp1Δ::LEU2 sur2-2) were transformed with mSPP1pRS414-ADH, mSPP1bpRS414-ADH, or control vector (pRS414-ADH) using the lithium acetate/polyethylene glycol procedure and plated onto Synthetic Complete-Tryptophan (SC-TRP) Yeast Nitrogen Base medium (DIFCO) containing 1.5% agar, 2% glucose and 0.078% tryptophan-free supplement mixture (BIO101). Transformants were inoculated into SC-TRP media and incubated overnight at 30° C. to an OD600 of 1.0. […]\nMicrosomal membranes were collected by ultracentrifugation (100,000×g, 1 hour) and suspended in disruption buffer containing 20% glycerol. Dihydrosphingosine-1-phosphate phosphohydrolase activity was measured in 200 μl containing 50 mM KPO4 pH 7.2, 0.02% tergitol (NP-40), 2 μM [^3H]dihydrosphingosine-1-phosphate (40,000 cpm), 2 mM semicarbazide, and 0.3 to 5 μg of membrane protein. […] One ml of chloroform:methanol (3:2) was added and 50 μl of the chloroform layer was counted by liquid scintillation."}}, "data": [{"molecule": "CCCCCCCCCCCCC/C=C/[C@@H](O)[C@@H](N)COP(=O)(O)O", "note": "[SPP, Sphingosine-1-phosphate]", "values": [{"measurement": "degradation of substrate by mSPP1 membrane fractions", "setting": "mSPP1", "result": "markedly degraded"}]}, {"molecule": "CCCCCC[C@@H](C)C1=C(O)C(=O)[C@@H]2[C@H](O)[C@H](C)C[C@H](O)[C@H]2[C@]1(C)C(=O)/C=C\\O", "note": "[australifungin]", "values": [{"measurement": "increase in the MIC90 of australifungin", "setting": "[1]; lbp1Δsur2-2 mutant expressing mSPP1, compared to vector transformed mutants, growth after 48 h at 30° C.", "result": 64, "unit": "fold"}, {"measurement": "australifungin sensitivity", "setting": "[1]; lbp1Δsur2-2 mutant expressing mSPP1b", "result": "did not alter"}]}, {"molecule": "ceramide-1-phosphate", "values": [{"measurement": "degradation of substrate by mSPP1 membrane fractions", "setting": "mSPP1", "result": "not"}]}, {"molecule": "lysophosphatidic acid", "values": [{"measurement": "degradation of substrate by mSPP1 membrane fractions", "setting": "mSPP1", "result": "not"}]}, {"molecule": "phosphatidic acid", "values": [{"measurement": "degradation of substrate by mSPP1 membrane fractions", "setting": "mSPP1", "result": "not"}]}, {"molecule": "B1", "values": [{"measurement": "apoptosis", "setting": "NIH 3T3 fibroblasts", "result": "induced the characteristic traits of apoptosis"}, {"measurement": "cell survival", "setting": "NIH 3T3 fibroblasts", "result": "markedly decreased survival"}, {"measurement": "increase in dihydrosphingosine phosphate phosphohydrolase activity", "setting": "[2]", "result": "4 to 5", "unit": "fold"}, {"measurement": "increase in membrane dihydrosphingosine-1-phosphate phosphohydrolase activity", "setting": "[3]", "result": "3 to 4", "unit": "fold"}]}, {"molecule": "B2", "values": [{"measurement": "increase in membrane dihydrosphingosine-1-phosphate phosphohydrolase activity", "setting": "[3]", "result": "same level of phosphohydrolase activity as control"}]}]}
